From US20150258108A1 (priority 2014, published 2015)
“Also recorded” adds a separate entry of the source.

How the values were obtained:
[1] = Pupillometry and cold pressor test in healthy volunteers; format: in vivo, human; conditions: 3-60 mg single oral dose
Protocol: Pulse oximetry and capnography data were collected continuously using a GE Carescape B650 monitoring system from 2 hours prior to dosing and until six hours after dosing, and thereafter at 12, 24, 48 and 72 hours post-dosing. Additional oximetry data were collected at 120, 168 and 216 hours. Pupillary miosis was assessed by pupillometry. Dark-adapted pupil diameter was measured in triplicate using a Neuroptics PLR-200 pupillometer under standardized light intensity (<5 lux) pre-dose, and at 2, 4, 6, 12, 24, 48, 72, 96, 120, 168 and 216 hours post-dosing.
Summary statistics (means, standard deviations, and coefficients of variation) were determined for each dose group for safety laboratory test data, ECG and pharmacokinetic parameters, and pharmacodynamic variables. Categorical variables were analysed using counts and percentages. Dose-proportionality of AUC and Cmax was assessed using linear regression. The effect of dose on pharmacodynamic parameter values over time was assessed using two-factor analysis of variance (ANOVA). […]
Analgesic effect was assessed based on duration of hand immersion in ice water and on visual analog scale (VAS) pain scores upon hand removal from the water bath. […]

[2] = Safety and tolerability of noribogaine in healthy humans; format: in vivo, human
Protocol: Safety and tolerability of noribogaine were tested in the group of volunteers from Example 1. Cold pressor testing was conducted in 1° C. water according to the method of Mitchell et al. (J. Pain 5:233-237, 2004) pre-dose, 6, 24, 48, 72 and 216 hours post-dosing. Safety evaluations included clinical monitoring, recording of adverse events (AEs), safety laboratory tests, vital signs, ECG telemetry from −2 h to 6 h after dosing, and 12-lead electrocardiograms (ECGs) up to 216 hours post-dosing.

[3] = molecular target: human OPRM (Homo sapiens, UniProt P35372); assay: cell-based; format: cell-based; set-up: host or cells: CHO-K1
human OPRM, sequence (P35372 whole entry): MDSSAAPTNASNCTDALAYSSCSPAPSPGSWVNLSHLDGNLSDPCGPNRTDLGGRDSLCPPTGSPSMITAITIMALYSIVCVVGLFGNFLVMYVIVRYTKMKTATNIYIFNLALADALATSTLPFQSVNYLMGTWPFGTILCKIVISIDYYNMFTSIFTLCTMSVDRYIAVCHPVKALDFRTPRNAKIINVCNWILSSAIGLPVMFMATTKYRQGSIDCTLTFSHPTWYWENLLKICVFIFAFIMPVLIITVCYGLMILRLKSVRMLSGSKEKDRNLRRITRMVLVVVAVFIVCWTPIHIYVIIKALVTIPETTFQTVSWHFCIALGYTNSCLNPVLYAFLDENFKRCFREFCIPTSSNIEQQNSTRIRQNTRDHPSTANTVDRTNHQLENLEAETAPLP

[4] = Ascending single-dose pharmacokinetics of noribogaine in healthy volunteers; conditions: for CL/F / Tmax: fasted healthy males, mean (SD), n = 6; for mean AUC/24 hr / mean AUC/24: fasting, serum

Compound: CC[C@H]1CC2C[C@H]3c4[nH]c5ccc(O)cc5c4CCN(C2)C13 [Noribogaine]
- analgesic effect in the cold pressor test ([1]; hand immersion duration and VAS pain scores): no analgesic effect
- pupillary constriction (pupillometry, dark-adapted pupil diameter) ([1]; vs placebo): no evidence of pupillary constriction
- adverse events reported ([2]; 3 mg dose group, healthy volunteers): five adverse events were reported by two subjects
- adverse events reported ([2]; 10 mg dose group, healthy volunteers): one adverse event was reported by single subjects
- adverse events reported ([2]; 30 mg dose group, healthy volunteers): one adverse event was reported by single subjects
- oximetry, capnography, respiratory rate ([2]; 3-60 mg, healthy volunteers): no changes in oximetry or capnography, or changes in respiratory rate
- vital signs and safety laboratory tests ([2]; 3-60 mg, healthy volunteers): no changes in vital signs or safety laboratory tests of note
- Adverse events: Mild ([2]; Dose 3 mg, healthy volunteers): Dizziness; also recorded: Epistaxis; also recorded: Headache; also recorded: Back pain
- Adverse events: Moderate ([2]; Dose 3 mg, healthy volunteers): Headache
- Adverse events: Mild ([2]; Dose 10 mg, healthy volunteers): Headache
- Adverse events: Mild ([2]; Dose 30 mg, healthy volunteers): Headache
- QTcF values ([2]; any time, all dose groups 3-60 mg, healthy volunteers): ≤ 500 ms
- single increase in QTcF ([2]; one subject dosed with 10 mg, 24 hours post-dosing): > 60 ms
- EC50 [3]: ~1.15 µM
- Efficacy [3]: 3%
- IC50 [3]: ~57 µM
- Ke [3]: ~4.8 µM
- agonism at OPRM β-arrestin-2 recruitment [3]: not an agonist at OPRM
- e-coupling [3]: ~1.10
- inhibition of agonist response (up to) [3]: 60-100%
- Kb ([3]; pEC50, pKe): 63.1 µM
- CL/F ([4]; 3 mg single oral dose): 41.4 (7.0) L/h
- CL/F ([4]; 10 mg single oral dose): 42.3 (12.0) L/h
- Tmax ([4]; 30 mg noribogaine single oral dose): 1.75 h
- CL/F ([4]; 30 mg single oral dose): 46.9 (16.4) L/h
- Tmax ([4]; 60 mg noribogaine single oral dose): 1.75 h
- CL/F ([4]; 60 mg single oral dose): 34.0 (11.4) L/h
- Cmax and AUC versus dose ([4]; 3-60 mg single oral doses): increased linearly with dose
- time of peak concentrations after oral noribogaine dosing ([4]; across dose groups, healthy volunteers): 2 to 3 h
- Mean half-life ([4]; across dose groups, healthy volunteers, plasma): 28 to 50 h
- Vd ([4]; male, human, plasma, oral): 1420 to 3090 L
- mean AUC/24 hr ([4]; single dose of 3 mg noribogaine free base): 3.1 ng/mL
- mean AUC/24 hr ([4]; single dose of 10 mg noribogaine free base): 10.6 ng/mL
- mean AUC/24 ([4]; single dose of 30 mg noribogaine free base): 29.2 ng/mL
- mean AUC/24 ([4]; single dose of 60 mg noribogaine free base): 61 ng/mL
